Patent publication US11612595B2, “Compositions and methods for treating rheumatoid arthritis” (Generos Biopharma Ltd., priority 2017, dated 2023)

Legend:
[1] = system: collagen-induced arthritis (CIA) model mice; assay: collagen-induced arthritis (CIA) model mice, clinical scores; type: in vivo, DBA/1J mice; parameters: key to Pairwise analysis of the difference between groups (clinical scores), vs Model / Pairwise analysis of the difference between groups (clinical scores), S5i 5 mpk vs S5i 10 mpk: p values from pairwise comparisons; conditions: for clinical scores compared to Model: 5 mg/kg i.p. daily; for Pairwise analysis of the difference between groups (clinical scores), vs Model: 5 mpk
Excerpt: FIGS. 8A and 8B show graphs depicting clinical score changes in four groups of CIA mouse models under different treatment schemes. In FIG. 8A, different chemicals (DMSO as control for Model group, blank group is left untreated) were daily administered intraperitoneally at the indicated doses from the first injection of the collagen agent. In FIG. 8B, different chemicals were daily administered intraperitoneally from the second injection of collagen agent at the indicated doses. Clinical scores were given double-blindly according to the scoring scheme every 2 days.
FIGS. 9A and 9B show graphs of clinical scores at day 44 for each group, the overall difference analyzed by ANOVA is significant p<0.0001, while the p value between Model and each individual group is labeled above the bar * p<0.05, ** p<0.01.
(§1) Eight of nine groups (10 mice in each group) of male DBA/1J mice (age 9-10 weeks. H-2q haplotype) were subject to CIA model induction and then to different treatment schemes. The group of mice without CIA model induction was used as a control (Blank). Specifically, Bovine type II collagen (Chondrex) was mixed with Freund's complete adjuvant (CFA) (Sigma) and injected s.c. to flank near tail of the mice twice (the second injection was made 21 days after the first injection) to create CIA model mice. The eight groups of CIA model mice were separated into four prophylactic groups and four therapeutic groups, with each group subjected to different treatments.
(§2) In the four prophylactic groups, daily treatments started from the date when the first CIA induction injection was made. The first of the four prophylactic groups of CIA model mice were treated with 30% PEG300 (containing 4% DMSO-all 30% PEG300 in the application contains 4% DMSO) solution via intraperitoneal injection as controls (Model). The second of the four prophylactic groups of CIA model mice were treated with nicotinohydrazide (Calbiochem) 10 mg/kg in 30% PEG300 solution via intraperitoneal injection (573108 10 mg/kg). The third of the four prophylactic groups of CIA model mice were treated with nicotinohydrazide (Calbiochem) 5 mg/kg in 30% PEG300 solution via intraperitoneal injection (573108 5 mg/kg). The last of the four prophylactic groups of CIA model mice were treated with Tofacitinib (Selleckchem) 5 mg/kg in 30% PEG300 solution via intraperitoneal injection (Tofacitinib 5 mg/kg).
(§3) In the four therapeutic groups, daily treatments started from the date when the second CIA induction injection was made. The first of the four therapeutic groups of CIA model mice were treated with 30% PEG300 solution via intraperitoneal injection as controls (Model). The second of the four therapeutic groups of CIA model mice were treated with nicotinohydrazide (Calbiochem) 10 mg/kg in 30% PEG300 solution via intraperitoncal injection (573108 10 mg/kg). The third of the four therapeutic groups of CIA model mice were treated with nicotinohydrazide (Calbiochem) 5 mg/kg in 30% PEG300 solution via intraperitoneal injection (573108 5 mg/kg). The last of the four therapeutic groups of CIA model mice were treated with Tofacitinib (Selleckchem) 5 mg/kg in 30% PEG300 solution via intraperitoncal injection (Tofacitinib 5 mg/kg).
(§4) The inventors collected data of the weight, and clinical scores of the mice every 2-3 days and performed statistic analysis. The method used in the statistic analysis was Student's t test, unpaired, two-tailed analysis.
The clinical scores were derived according to the scheme in Table 2.

[2] = weight changes in mouse CIA model; type: in vivo, DBA/1J mice; conditions: 5 mg/kg i.p. daily
Method: FIGS. 7A and 78 show graphs depicting weight changes in five groups of mouse CIA models under different treatment schemes. DBA/1 mice were randomly divided into 9 groups with 10 mice each group. On day 0 and 21, all of them except blank control group were inoculated with 50 ul collagen plus CFA mixture subcutaneously at back flank near tail. The weights of all 90 mice were monitored 3 times a week throughout the experiment.
as §1, §2, §3, §4

With `C[C@@H]1CCN(C(=O)CC#N)C[C@@H]1N(C)c1ncnc2[nH]ccc12` [Tofacitinib] the “clinical scores compared to Model” value ([1]; prophylactic groups) was “reduced clinical scores”, the “Pairwise analysis of the difference between groups (clinical scores), vs Model” value ([1]; prophylactic groups, Day 28) was 0.0949 and the “Pairwise analysis of the difference between groups (clinical scores), vs Model” value ([1]; prophylactic groups, Day 30) was 0.0496. The “Pairwise analysis of the difference between groups (clinical scores), vs Model” value ([1]; prophylactic groups, Day 32) was 0.0610, the “Pairwise analysis of the difference between groups (clinical scores), vs Model” value ([1]; prophylactic groups, Day 35) was 0.0064 and the “Pairwise analysis of the difference between groups (clinical scores), vs Model” value ([1]; prophylactic groups, Day 37) was 0.0178. The “Pairwise analysis of the difference between groups (clinical scores), vs Model” value ([1]; prophylactic groups, Day 39) was 0.0010, the “Pairwise analysis of the difference between groups (clinical scores), vs Model” value ([1]; prophylactic groups, Day 42) was 0.0015 and the “Pairwise analysis of the difference between groups (clinical scores), vs Model” value ([1]; prophylactic groups, Day 44) was 0.0026. The “clinical scores compared to Model” value ([1]; therapeutic groups) was “reduced clinical scores”, the “Pairwise analysis of the difference between groups (clinical scores), vs Model” value ([1]; therapeutic groups, Day 28) was 0.0258 and the “Pairwise analysis of the difference between groups (clinical scores), vs Model” value ([1]; therapeutic groups, Day 30) was 0.0471. For the same molecule, the “Pairwise analysis of the difference between groups (clinical scores), vs Model” value ([1]; therapeutic groups, Day 32) was 0.0138, the “Pairwise analysis of the difference between groups (clinical scores), vs Model” value ([1]; therapeutic groups, Day 35) was 0.0163 and the “Pairwise analysis of the difference between groups (clinical scores), vs Model” value ([1]; therapeutic groups, Day 37) was 0.0170. The “Pairwise analysis of the difference between groups (clinical scores), vs Model” value ([1]; therapeutic groups, Day 39) was 0.0153, the “Pairwise analysis of the difference between groups (clinical scores), vs Model” value ([1]; therapeutic groups, Day 42) was 0.0081 and the “Pairwise analysis of the difference between groups (clinical scores), vs Model” value ([1]; therapeutic groups, Day 44) was 0.0044. The “trend of weight changes, p vs Model” value ([2]; prophylactic groups) was 0.0130 and the “trend of weight changes, p vs Model” value ([2]; therapeutic groups) was 0.0005.
